Reference: US20250098679A1, “HERBICIDAL PYRIDONE DERIVATIVES” (SYNGENTA CROP PROTECTION AG, priority 2021, published 2025)

Assays:
Assay type in all cases: in vivo
Settings in all cases: evaluated after 13 days
Setaria faberi (SETFA) [1] = assay: Post-emergence Test, Setaria faberi (SETFA); set-up: key to percentage damage caused to the plant, SETFA (five-point scale): 5=81-100%, 4=61-80%, 3=41-60%, 2=21-40%, 1=0-20% damage
Outline: (§1)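 Sown pots in a glasshouse (24/16 °C day/night, 14 h light, 65% humidity) were sprayed with compound in acetone/water (50:50) with 0.5% Tween 20, at 1000 g/ha unless otherwise stated. Damage was assessed 13 days after spraying and scored 1–5 (5=81-100%, 1=0-20%).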

Setaria faberi (SETFA) [2] = assay: Pre-emergence Test, Setaria faberi (SETFA)
[3] = system: Echinochloa crus-galli (ECHCG); assay: Post-emergence Test, Echinochloa crus-galli (ECHCG); set-up: key to percentage damage caused to the plant, ECHCG (five-point scale): 5=81-100%, 4=61-80%, 3=41-60%, 2=21-40%, 1=0-20% damage
Outline: as §1

[4] = system: Ipomoea hederacea (IPOHE); assay: Pre-emergence Test, Ipomoea hederacea (IPOHE)
Zea mays (ZEAMX) [5] = assay: Pre-emergence Test, Zea mays (ZEAMX)
[6] = system: Amaranthus palmeri (AMAPA); assay: Post-emergence Test, Amaranthus palmeri (AMAPA); set-up: key: 5=81-100%, 4=61-80%, 3=41-60%, 2=21-40%, 1=0-20% damage
Outline: as §1

[7] = system: Amaranthus palmeri (AMAPA); assay: Pre-emergence Test, Amaranthus palmeri (AMAPA)
Zea mays (ZEAMX) [8] = assay: Post-emergence Test, Zea mays (ZEAMX); set-up: key to percentage damage caused to the plant, ZEAMX (five-point scale): 5=81-100%, 4=61-80%, 3=41-60%, 2=21-40%, 1=0-20% damage
Outline: as §1

[9] = system: Ipomoea hederacea (IPOHE); assay: Post-emergence Test, Ipomoea hederacea (IPOHE); set-up: key to percentage damage caused to the plant, IPOHE (five-point scale): 5=81-100%, 4=61-80%, 3=41-60%, 2=21-40%, 1=0-20% damage
Outline: as §1

[10] = system: Amaranthus retoflexus (AMARE); assay: Post-emergence Test, Amaranthus retoflexus (AMARE); set-up: key to percentage damage caused to the plant, AMARE (five-point scale): 5=81-100%, 4=61-80%, 3=41-60%, 2=21-40%, 1=0-20% damage
Outline: as §1

[11] = system: Echinochloa crus-galli (ECHCG); assay: Pre-emergence Test, Echinochloa crus-galli (ECHCG)
[12] = system: Amaranthus retoflexus (AMARE); assay: Pre-emergence Test, Amaranthus retoflexus (AMARE)

CCn1c(Cn2ccc(I)n2)cc(=O)c(C(=O)O)c1-c1ccc(Cl)c(Cl)c1 [Compound 78, 2-(3,4-dichlorophenyl)-1-ethyl-6-[(3-iodopyrazol-1-yl)methyl]-4-oxo-pyridine-3-carboxylic acid]
4 (4=61-80%): percentage damage caused to the plant, SETFA (five-point scale) (Setaria faberi (SETFA) [1]; 250 g/Ha) | percentage damage caused to the plant, SETFA (five-point scale) (Setaria faberi (SETFA) [1]; 1000 g/ha) | percentage damage caused to the plant, ECHCG (five-point scale) ([3]; 1000 g/ha) | Pre-emergence Test IPOHE, percentage damage caused to the plant (five-point scale) ([4]; 250 g/Ha (*)) | Pre-emergence Test IPOHE, percentage damage caused to the plant (five-point scale) ([4]; 1000 g/ha) | Pre-emergence Test ZEAMX, percentage damage caused to the plant (five-point scale) (Zea mays (ZEAMX) [5]; 250 g/Ha (*)) | percentage damage caused to the plant, IPOHE (five-point scale) ([9]; 250 g/Ha) | percentage damage caused to the plant, IPOHE (five-point scale) ([9]; 1000 g/ha)
3 (3=41-60%): percentage damage caused to the plant, ECHCG (five-point scale) ([3]; 250 g/Ha) | Pre-emergence Test ZEAMX, percentage damage caused to the plant (five-point scale) (Zea mays (ZEAMX) [5]; 1000 g/ha) | Pre-emergence Test AMAPA, percentage damage caused to the plant (five-point scale) ([7]; 250 g/Ha (*)) | percentage damage caused to the plant, ZEAMX (five-point scale) (Zea mays (ZEAMX) [8]; 1000 g/ha) | percentage damage caused to the plant, AMARE (five-point scale) ([10]; 1000 g/ha)
2 (2=21-40%): percentage damage caused to the plant, AMAPA (five-point scale) ([6]; 250 g/Ha) | percentage damage caused to the plant, AMAPA (five-point scale) ([6]; 1000 g/ha) | Pre-emergence Test AMAPA, percentage damage caused to the plant (five-point scale) ([7]; 1000 g/ha) | Pre-emergence Test AMARE, percentage damage caused to the plant (five-point scale) ([12]; 250 g/Ha (*)) | Pre-emergence Test AMARE, percentage damage caused to the plant (five-point scale) ([12]; 1000 g/ha)
5 (5=81-100%): Pre-emergence Test SETFA, percentage damage caused to the plant (five-point scale) (Setaria faberi (SETFA) [2]; 250 g/Ha (*)) | Pre-emergence Test SETFA, percentage damage caused to the plant (five-point scale) (Setaria faberi (SETFA) [2]; 1000 g/ha) | Pre-emergence Test ECHCG, percentage damage caused to the plant (five-point scale) ([11]; 250 g/Ha (*)) | Pre-emergence Test ECHCG, percentage damage caused to the plant (five-point scale) ([11]; 1000 g/ha)
1 (1=0-20%): percentage damage caused to the plant, ZEAMX (five-point scale) (Zea mays (ZEAMX) [8]; 250 g/Ha) | percentage damage caused to the plant, AMARE (five-point scale) ([10]; 250 g/Ha)

CCOC(=O)c1c(-c2ccc(Cl)c(Cl)c2)n(CC)c(Cn2ccc(Cl)n2)cc1=O [Compound 3, ethyl 6-[(3-chloropyrazol-1-yl)methyl]-2-(3,4-dichlorophenyl)-1-ethyl-4-oxo-pyridine-3-carboxylate]
0: Pre-emergence Test IPOHE, percentage damage caused to the plant (five-point scale) ([4]; 250 g/Ha (*)) | Pre-emergence Test IPOHE, percentage damage caused to the plant (five-point scale) ([4]; 1000 g/ha) | Pre-emergence Test ZEAMX, percentage damage caused to the plant (five-point scale) (Zea mays (ZEAMX) [5]; 250 g/Ha (*)) | Pre-emergence Test ZEAMX, percentage damage caused to the plant (five-point scale) (Zea mays (ZEAMX) [5]; 1000 g/ha) | Pre-emergence Test AMAPA, percentage damage caused to the plant (five-point scale) ([7]; 250 g/Ha (*)) | Pre-emergence Test AMAPA, percentage damage caused to the plant (five-point scale) ([7]; 1000 g/ha) | percentage damage caused to the plant, ZEAMX (five-point scale) (Zea mays (ZEAMX) [8]; 250 g/Ha) | Pre-emergence Test AMARE, percentage damage caused to the plant (five-point scale) ([12]; 250 g/Ha (*))
5 (5=81-100%): Pre-emergence Test SETFA, percentage damage caused to the plant (five-point scale) (Setaria faberi (SETFA) [2]; 1000 g/ha)
3 (3=41-60%): percentage damage caused to the plant, SETFA (five-point scale) (Setaria faberi (SETFA) [1]; 1000 g/ha) | percentage damage caused to the plant, ECHCG (five-point scale) ([3]; 1000 g/ha)
4 (4=61-80%): percentage damage caused to the plant, IPOHE (five-point scale) ([9]; 250 g/Ha) | Pre-emergence Test ECHCG, percentage damage caused to the plant (five-point scale) ([11]; 1000 g/ha)
1 (1=0-20%): Pre-emergence Test SETFA, percentage damage caused to the plant (five-point scale) (Setaria faberi (SETFA) [2]; 250 g/Ha (*)) | percentage damage caused to the plant, ECHCG (five-point scale) ([3]; 250 g/Ha) | percentage damage caused to the plant, AMAPA (five-point scale) ([6]; 250 g/Ha) | percentage damage caused to the plant, AMARE (five-point scale) ([10]; 250 g/Ha) | percentage damage caused to the plant, AMARE (five-point scale) ([10]; 1000 g/ha) | Pre-emergence Test ECHCG, percentage damage caused to the plant (five-point scale) ([11]; 250 g/Ha (*)) | Pre-emergence Test AMARE, percentage damage caused to the plant (five-point scale) ([12]; 1000 g/ha)
2 (2=21-40%): percentage damage caused to the plant, SETFA (five-point scale) (Setaria faberi (SETFA) [1]; 250 g/Ha) | percentage damage caused to the plant, AMAPA (five-point scale) ([6]; 1000 g/ha) | percentage damage caused to the plant, ZEAMX (five-point scale) (Zea mays (ZEAMX) [8]; 1000 g/ha) | percentage damage caused to the plant, IPOHE (five-point scale) ([9]; 1000 g/ha)
